{"source": "patent US9157917B2", "about": "“Applications of Indoloindole and Indoloquinoline dyes” (Biosynth AG, priority 2010, dated 2015)", "key": {"E. coli": {"test_system": "E. coli", "experiment": "Fluorescence of Aldol 495 nonanoate in nutrient broth cultures", "format": "cell-based"}, "[1]": {"experiment": "Fluorescence of Aldol 495 nonanoate in nutrient broth, sterile control", "format": "physicochemical"}, "S. enteritidis": {"test_system": "S. enteritidis", "experiment": "Fluorescence of Aldol 495 nonanoate in nutrient broth cultures", "conditions": "for Fluorescence values: S. enteritidis"}, "[2]": {"test_system": "various bacterial strains", "experiment": "Nonanoate indicators in buffered peptone water in polystyrene plates", "format": "cell-based", "conditions": "0.4 mM, polystyrene plate, 37° C., 48 hours, excitation 360 nm, emission 560 nm", "experimental": "Buffered peptone water containing either 0.4 mM Aldol™ 495 nonanoate or 0.2 mM 4-methylumbelliferyl nonanoate was dispensed in a microtiter plate and inoculated with about 700 cfu/ml of various bacterial strains. […] An excitation wavelength of 360 nm was used for both dyes, the emission wavelength was 560 nm for the Aldol™ 495 dye and 460 nm for the 4-methylumbelliferone."}, "Salmonella": {"test_system": "Salmonella", "experiment": "Salmonella grown in medium with precursor emulsion in glass tubes", "format": "cell-based", "conditions": "medium without detergents"}}, "data": [{"smiles": "CCCCCCCCC(=O)Oc1cn(-c2ccccc2C(=O)c2cccn2C)c2cc(Cl)ccc12", "note": "[Aldol™ 495 nonanoate]", "values": [{"measurement": "Fluorescence values", "setting": "E. coli; stock solution 50 mM, 0 h", "value": 424, "unit": "RFU"}, {"measurement": "Fluorescence values", "setting": "E. coli; stock solution 50 mM, 12 h", "value": 463, "unit": "RFU"}, {"measurement": "Fluorescence values", "setting": "E. coli; stock solution 50 mM, 18 h", "value": 551, "unit": "RFU"}, {"measurement": "Fluorescence values", "setting": "E. coli; stock solution 50 mM, 48 h", "value": 1710, "unit": "RFU"}, {"measurement": "Fluorescence values", "setting": "E. coli; stock solution 50 mM, 120 h", "value": 3851, "unit": "RFU"}, {"measurement": "Fluorescence values", "setting": "E. coli; stock solution 200 mM, 0 h", "value": 444, "unit": "RFU"}, {"measurement": "Fluorescence values", "setting": "E. coli; stock solution 200 mM, 12 h", "value": 404, "unit": "RFU"}, {"measurement": "Fluorescence values", "setting": "E. coli; stock solution 200 mM, 18 h", "value": 468, "unit": "RFU"}, {"measurement": "Fluorescence values", "setting": "E. coli; stock solution 200 mM, 48 h", "value": 774, "unit": "RFU"}, {"measurement": "Fluorescence values", "setting": "E. coli; stock solution 200 mM, 120 h", "value": 1924, "unit": "RFU"}, {"measurement": "Fluorescence values", "setting": "[1]; stock solution 50 mM, 0 h", "value": 392, "unit": "RFU"}, {"measurement": "Fluorescence values", "setting": "[1]; stock solution 50 mM, 12 h", "value": 445, "unit": "RFU"}, {"measurement": "Fluorescence values", "setting": "[1]; stock solution 50 mM, 18 h", "value": 434, "unit": "RFU"}, {"measurement": "Fluorescence values", "setting": "[1]; stock solution 50 mM, 48 h", "value": 511, "unit": "RFU"}, {"measurement": "Fluorescence values", "setting": "[1]; stock solution 50 mM, 120 h", "value": 523, "unit": "RFU"}, {"measurement": "Fluorescence values", "setting": "[1]; stock solution 200 mM, 0 h", "value": 433, "unit": "RFU"}, {"measurement": "Fluorescence values", "setting": "[1]; stock solution 200 mM, 12 h", "value": 399, "unit": "RFU"}, {"measurement": "Fluorescence values", "setting": "[1]; stock solution 200 mM, 18 h", "value": 411, "unit": "RFU"}, {"measurement": "Fluorescence values", "setting": "[1]; stock solution 200 mM, 48 h", "value": 422, "unit": "RFU"}, {"measurement": "Fluorescence values", "setting": "[1]; stock solution 200 mM, 120 h", "value": 455, "unit": "RFU"}, {"measurement": "Fluorescence signal, indicator added from 20 mM stock solution versus 200 mM stock solution", "setting": "S. enteritidis", "value": "stronger fluorescence signal"}, {"measurement": "Fluorescence values", "setting": "S. enteritidis; stock solution 50 mM, 0 h", "value": 406, "unit": "RFU"}, {"measurement": "Fluorescence values", "setting": "S. enteritidis; stock solution 50 mM, 12 h", "value": 2922, "unit": "RFU"}, {"measurement": "Fluorescence values", "setting": "S. enteritidis; stock solution 50 mM, 18 h", "value": 10047, "unit": "RFU"}, {"measurement": "Fluorescence values", "setting": "S. enteritidis; stock solution 50 mM, 48 h", "value": 45027, "unit": "RFU"}, {"measurement": "Fluorescence values", "setting": "S. enteritidis; stock solution 50 mM, 120 h", "value": 13424, "unit": "RFU"}, {"measurement": "Fluorescence values", "setting": "S. enteritidis; stock solution 200 mM, 0 h", "value": 412, "unit": "RFU"}, {"measurement": "Fluorescence values", "setting": "S. enteritidis; stock solution 200 mM, 12 h", "value": 1812, "unit": "RFU"}, {"measurement": "Fluorescence values", "setting": "S. enteritidis; stock solution 200 mM, 18 h", "value": 3449, "unit": "RFU"}, {"measurement": "Fluorescence values", "setting": "S. enteritidis; stock solution 200 mM, 48 h", "value": 8403, "unit": "RFU"}, {"measurement": "Fluorescence values", "setting": "S. enteritidis; stock solution 200 mM, 120 h", "value": 5169, "unit": "RFU"}, {"measurement": "Specificity of fluorescence", "setting": "[2]", "value": "specific for Salmonella strains"}, {"measurement": "Fluorescence of Salmonella culture", "setting": "Salmonella", "value": "yellow green fluorescence"}]}]}
